Read-outs that look alike come from different tables or passages of the source. *1 amine or outer side, *2 acyl side, *3 side chain or, on linkers, in order; H or OH if unused. Where a SMILES comes first, the peptide text is derived from it. [ ]: non-standard residue; d: D form. The star is where a group is joined. Oic = O=C(O)[C@@H]1C[C@@H]2CCCC[C@@H]2N1; NH(1S-phenylethyl) = C[C@H](N*)c1ccccc1; X2 = CCC[C@H](N[*:1])C(=O)C(=O)[*:2]; Isopropoxycarbonyl = CC(C)OC(=O)*; Pyrazinecarbonyl = O=C(c1cnccn1)*; X1 = CCCC(N[*:1])C(=O)C(=O)[*:2]; Chg = N[C@H](C(=O)O)C1CCCCC1; Tle = CC(C)(C)[C@H](N)C(=O)O; Dap = NC[C@H](N)C(=O)O; NHcPr = C1CC1N*; Moc = COC(=O)*
Key:
[1] = biological target: HCV NS3-NS4A protease (tNS3 with KK4A) (Hepatitis C virus genotype 1a, UniProt P27958); experiment: HCV Ki assay (HPLC microbore separation of 5AB substrate and products); format: biochemical
Description: HPLC Microbore Method for Separation of 5AB Substrate and Products
• Substrate: • NH2-Glu-Asp-Val-Val-(alpha)Abu-Cys-Ser-Met-Ser-Tyr-COOH
A stock solution of 20 mM 5AB (or concentration of your choice) was made in DMSO w/ 0.2M DTT. This was stored in aliquots at −20 C.
Buffer: 50 mM HEPES, pH 7.8; 20% glycerol; 100 mM NaCl
Total assay volume was 100 μL
The buffer, KK4A, DTT, and tNS3 were combined; distributed 78 μL each into wells of 96 well plate. This was incubated at 30 C for ˜5–10 min.
2.5 μL of appropriate concentration of test compound was dissolved in DMSO (DMSO only for control) and added to each well. This was incubated at room temperature for 15 min.
Initiated reaction by addition of 20 μL of 250 μM 5AB substrate (25 μM concentration is equivalent or slightly lower than the Km for 5AB).
Incubated for 20 min at 30 C.
Terminated reaction by addition of 25 μL of 10% TFA
Transferred 120 μL aliquots to HPLC vials
Separated SMSY product from substrate and KK4A by the following method:
Microbore Separation Method:
Instrumentation: Agilent 1100
• Degasser G1322A • Binary pump G1312A • Autosampler G1313A • Column thermostated chamber G1316A • Diode array detector G1315A Column:
Phenomenex Jupiter; 5 micron C18; 300 angstroms; 150×2 mm; P/O 00F-4053-B0 • Column thermostat: 40 C • Injection volume: 100 μL • Solvent A=HPLC grade water+0.1% TFA • Solvent B=HPLC grade acetonitrile+0.1% TFA
• Stop time: 17 min • Post-run time: 10 min.

[2] = tested on: Cells containing hepatitis C virus (HCV) replicon; experiment: HCV replicon cell assay (Taqman RT-PCR of HCV RNA); format: cell-based
Description: HCV Replicon Cell Assay Protocol
Cells containing hepatitis C virus (HCV) replicon were maintained in DMEM containing 10% fetal bovine serum (FBS), 0.25 mg per ml of G418, with appropriate supplements (media A).
On day 1, replicon cell monolayer was treated with a trypsin:EDTA mixture, removed, and then media A was diluted into a final concentration of 100,000 cells per ml wit. 10,000 cells in 100 ul were plated into each well of a 96-well tissue culture plate, and cultured overnight in a tissue culture incubator at 37° C.
On day 2, compounds (in 100% DMSO) were serially diluted into DMEM containing 2% FBS, 0.5% DMSO, with appropriate supplements (media B). The final concentration of DMSO was maintained at 0.5% throughout the dilution series.
Media on the replicon cell monolayer was removed, and then media B containing various concentrations of compounds was added. Media B without any compound was added to other wells as no compound controls.
Cells were incubated with compound or 0.5% DMSO in media B for 48 hours in a tissue culture incubator at 37° C. At the end of the 48-hour incubation, the media was removed, and the replicon cell monolayer was washed once with PBS and stored at −80° C. prior to RNA extraction.
Culture plates with treated replicon cell monolayers were thawed, and a fixed amount of another RNA virus, such as Bovine Viral Diarrhea Virus (BVDV) was added to cells in each well. RNA extraction reagents (such as reagents from RNeasy kits) were added to the cells immediately to avoid degradation of RNA. Total RNA was extracted according the instruction of manufacturer with modification to improve extraction efficiency and consistency. Finally, total cellular RNA, including HCV replicon RNA, was eluted and stored at −80° C. until further processing.
A Taqman real-time RT-PCR quantification assay was set up with two sets of specific primers and probe. One was for HCV and the other was for BVDV. Total RNA extractants from treated HCV replicon cells was added to the PCR reactions for quantification of both HCV and BVDV RNA in the same PCR well. Experimental failure was flagged and rejected based on the level of BVDV RNA in each well. The level of HCV RNA in each well was calculated according to a standard curve run in the same PCR plate. The percentage of inhibition or decrease of HCV RNA level due to compound treatment was calculated using the DMSO or no compound control as 0% of inhibition. The IC50 (concentration at which 50% inhibition of HCV RNA level is observed) was calculated from the titration curve of any given compound.

[3] = 50% inhibition of HCV RNA level, 48-hour incubation, HCV replicon cells, read-out: IC50

Chain of HCV NS3-NS4A protease (tNS3 with KK4A) (P27958 1027-1208): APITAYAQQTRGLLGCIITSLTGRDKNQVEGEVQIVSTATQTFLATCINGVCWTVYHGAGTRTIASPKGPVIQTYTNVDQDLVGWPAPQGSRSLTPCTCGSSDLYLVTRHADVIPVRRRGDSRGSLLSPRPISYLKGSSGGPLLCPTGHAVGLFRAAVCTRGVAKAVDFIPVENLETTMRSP

Ki ([1]; 25 nM tNS3, 25 μM KK4A, 25 μM 5AB substrate, 20 min at 30 C, read-out: Ki) [nM] | SMILES | Ki [1] [nM] | IC50 ([2]; 48 h) [nM] | IC50 [2, 3] [nM]
 | CCCC(NC(=O)[C@@H]1C[C@@H]2CCCC[C@@H]2N1C(=O)[C@@H](NC(=O)[C@@H](NC(=O)c1cnccn1)C(C)C)C(C)C)C(=O)C(=O)N[C@@H](Cc1ccccc1)C(=O)O (stereo partly shown) [Compound 1a] (Pyrazinecarbonyl-VV[Oic][X1]F-OH) | < 500 |  | 
 | CCCC(NC(=O)[C@@H]1C[C@@H]2CCCC[C@@H]2N1C(=O)[C@@H](NC(=O)[C@@H](NC(=O)c1cnccn1)C(C)C)C(C)C)C(=O)C(=O)NC1CC1 (stereo partly shown) [Compound 2a] | 500 to 1000 |  | 
 | CCCC(NC(=O)[C@@H]1C[C@@H]2CCCC[C@@H]2N1C(=O)[C@@H](NC(=O)[C@@H](NC(=O)c1cnccn1)C1CCCCC1)C(C)C)C(=O)C(=O)NC1CC1 (stereo partly shown) [Compound 3a] | < 500 | 1000 to 5000 | 
 | CCCC(NC(=O)[C@@H]1C[C@@H]2CCCC[C@@H]2N1C(=O)[C@@H](NC(=O)[C@@H](NC(=O)c1cnccn1)C1CCCCC1)C(C)(C)C)C(=O)C(=O)NC1CC1 (stereo partly shown) [Compound 4a] | < 500 |  | 500 to 1000
 | CCCC(NC(=O)[C@@H]1C[C@@H]2CCCC[C@@H]2N1C(=O)[C@@H](NC(=O)[C@@H](NC(=O)[C@H](C)NC(=O)OC(C)C)C1CCCCC1)C(C)C)C(=O)C(=O)NC1CC1 (stereo partly shown) [Compound 5a] (Isopropoxycarbonyl-A[Chg]V[Oic][X1]-NHcPr) | < 500 |  | 
 | CCCC(NC(=O)[C@@H]1C[C@@H]2CCCC[C@@H]2N1C(=O)[C@@H](NC(=O)[C@@H](NC(=O)[C@H](C)NC(=O)OC(C)C)C1CCCCC1)C(C)(C)C)C(=O)C(=O)NC1CC1 (stereo partly shown) [Compound 6a] (Isopropoxycarbonyl-A[Chg][Tle][Oic][X1]-NHcPr) | < 500 |  | 
 | CCCC(NC(=O)[C@@H]1C[C@@H]2CCCC[C@@H]2N1C(=O)[C@@H](NC(=O)[C@@H](NC(=O)c1cnccn1)C1CCCCC1)C(C)(C)C)C(=O)C(=O)N[C@@H](C)c1ccccc1 (stereo partly shown) [Compound 7a] | < 500 |  | 
 | CCCC(NC(=O)[C@@H]1C[C@@H]2CCCC[C@@H]2N1C(=O)[C@@H](NC(=O)[C@@H](NC(=O)C1CSC(=O)N1)C1CCCCC1)C(C)(C)C)C(=O)C(=O)N[C@@H](C)c1ccccc1 (stereo partly shown) [Compound 8a] | < 500 |  | 
 | CCCC(NC(=O)[C@@H]1C[C@@H]2CCCC[C@@H]2N1C(=O)[C@@H](NC(=O)[C@@H](NC(=O)[C@H](CNC(=O)OC)NC(=O)OC)C1CCCCC1)C(C)(C)C)C(=O)C(=O)N[C@@H](C)c1ccccc1 (stereo partly drawn) [Compound 9a] (Moc-[Dap](Moc)[Chg][Tle][Oic][X1]-{NH(1S-phenylethyl)}) | < 500 |  | < 500
 | CCC[C@H](NC(=O)[C@@H]1C[C@@H]2CCCC[C@@H]2N1C(=O)[C@@H](NC(=O)[C@@H](NC(=O)c1cnccn1)C1CCCCC1)C(C)(C)C)C(=O)C(=O)NC1CC1 [Compound 10a] | < 500 |  | 500 to 1000
 | CCC[C@H](NC(=O)[C@@H]1C[C@@H]2CCCC[C@@H]2N1C(=O)[C@@H](NC(=O)[C@@H](NC(=O)c1ccc[nH]1)C1CCCCC1)C(C)(C)C)C(=O)C(=O)NC1CC1 [Compound 11a] | < 500 |  | < 500
 | CCC[C@H](NC(=O)[C@@H]1C[C@@H]2CCCC[C@@H]2N1C(=O)[C@@H](NC(=O)[C@@H](NC(=O)c1cc([N+](=O)[O-])c[nH]1)C1CCCCC1)C(C)(C)C)C(=O)C(=O)NC1CC1 [Compound 12a] | < 500 |  | < 500
 | CCC[C@H](NC(=O)[C@@H]1C[C@@H]2CCCC[C@@H]2N1C(=O)[C@@H](NC(=O)[C@@H](NC(=O)c1[nH]ncc1[N+](=O)[O-])C1CCCCC1)C(C)(C)C)C(=O)C(=O)NC1CC1 [Compound 13a] | < 500 |  | 500 to 1000
 | CCC[C@H](NC(=O)[C@@H]1C[C@@H]2CCCC[C@@H]2N1C(=O)[C@@H](NC(=O)[C@@H](NC(=O)c1cc([N+](=O)[O-])n[nH]1)C1CCCCC1)C(C)(C)C)C(=O)C(=O)NC1CC1 [Compound 14a] | < 500 |  | 1000 to 5000
 | CCC[C@H](NC(=O)[C@@H]1C[C@@H]2CCCC[C@@H]2N1C(=O)[C@@H](NC(=O)[C@@H](NC(=O)c1ccn[nH]1)C1CCCCC1)C(C)(C)C)C(=O)C(=O)NC1CC1 [Compound 15a] | < 500 |  | < 500
 | CCC[C@H](NC(=O)[C@@H]1C[C@@H]2CCCC[C@@H]2N1C(=O)[C@@H](NC(=O)[C@@H](NC(=O)c1cc(C(C)(C)C)n[nH]1)C1CCCCC1)C(C)(C)C)C(=O)C(=O)NC1CC1 [Compound 16a] | < 500 |  | 1000 to 5000
 | CCC[C@H](NC(=O)[C@@H]1C[C@@H]2CCCC[C@@H]2N1C(=O)[C@@H](NC(=O)[C@@H](NC(=O)c1ccnn1C)C1CCCCC1)C(C)(C)C)C(=O)C(=O)NC1CC1 [Compound 17a] | 1000 to 5000 |  | 
 | CCC[C@H](NC(=O)[C@@H]1C[C@@H]2CCCC[C@@H]2N1C(=O)[C@@H](NC(=O)[C@@H](NC(=O)c1cc2cc(F)ccc2[nH]1)C1CCCCC1)C(C)(C)C)C(=O)C(=O)NC1CC1 [Compound 18a] | < 500 |  | < 500
 | CCC[C@H](NC(=O)[C@@H]1C[C@@H]2CCCC[C@@H]2N1C(=O)[C@@H](NC(=O)[C@@H](NC(=O)[C@@](C)(O)c1ccccc1)C1CCCCC1)C(C)(C)C)C(=O)C(=O)NC1CC1 [Compound 19a] | < 500 |  | 500 to 1000
 | CCC[C@H](NC(=O)[C@@H]1C[C@@H]2CCCC[C@@H]2N1C(=O)[C@@H](NC(=O)[C@@H](NC(=O)c1nccnc1C(N)=O)C1CCCCC1)C(C)(C)C)C(=O)C(=O)NC1CC1 [Compound 28a] | < 500 |  | 
 | CCC[C@H](NC(=O)[C@@H]1C[C@@H]2CCCC[C@@H]2N1C(=O)[C@@H](NC(=O)[C@@H](NC(=O)c1[nH]ncc1Cl)C1CCCCC1)C(C)(C)C)C(=O)C(=O)NC1CC1 [Compound 38a] | 500 to 1000 |  | 
 | CCC[C@H](NC(=O)[C@@H]1C[C@@H]2CCCC[C@@H]2N1C(=O)[C@@H](NC(=O)[C@@H](NC(=O)c1cnccn1)C1CCCCC1)C(C)(C)C)C(=O)C(=O)N(C)C [Compound 50a] | 1000 to 5000 |  | 
 | CCC[C@H](NC(=O)[C@@H]1C[C@@H]2CCCC[C@@H]2N1C(=O)[C@@H](NC(=O)[C@@H](NC(=O)c1cnccn1)C1CCCCC1)C(C)(C)C)C(=O)C(=O)NCC(=O)N(C)C [Compound 54a] (Pyrazinecarbonyl-[Chg][Tle][Oic][X2]G-NMe2) | 1000 to 5000 |  | 
< 500 | CCCC(NC(=O)[C@@H]1C[C@@H]2CCCC[C@@H]2N1C(=O)[C@@H](NC(=O)[C@@H](NC(=O)c1cnccn1)C1CCCCC1)C(C)(C)C)B1O[C@@H]2C[C@@H]3C[C@@H](C3(C)C)[C@]2(C)O1 (stereo partly shown) [Compound 56a] |  |  | 
 | CCC[C@H](NC(=O)[C@@H]1C[C@@H]2CCCC[C@@H]2N1C(=O)[C@@H](NC(=O)[C@H](C1CCCCC1)N1C(=O)c2ccccc2C1=O)C(C)(C)C)C(=O)C(=O)NC1CC1 [Compound 57a] | < 500 |  | 
 | CCC[C@H](NC(=O)[C@@H]1C[C@@H]2CCCC[C@@H]2N1C(=O)[C@@H](NC(=O)[C@@H](NC(=O)c1[nH]c(C)c(C)c1C(C)=O)C(C)C)C(C)(C)C)C(=O)C(=O)NC1CC1 [Compound 58a] | < 500 |  | 
 | CCC[C@H](NC(=O)[C@@H]1C[C@@H]2CCCC[C@@H]2N1C(=O)[C@@H](NC(=O)[C@@H](NC(=O)c1[nH]c(C)c(C)c1C(C)=O)C(C)CC)C(C)(C)C)C(=O)C(=O)NC1CC1 (stereo partly shown) [Compound 59a] | < 500 |  | 
 | CCC[C@H](NC(=O)[C@@H]1C[C@@H]2CCCC[C@@H]2N1C(=O)[C@@H](NC(=O)[C@@H](NC(=O)c1[nH]c(C)c(C)c1C(C)=O)C1CCCCC1)C(C)(C)C)C(=O)C(=O)C(C)C [Compound 62a] | 500 to 1000 |  | 

Source: US7273885B2, “Inhibitors of serine proteases, particularly HCV NS3-NS4A protease” (Vertex Pharmaceuticals Incorporated, priority 2002, dated 2007)
